Measurements published in ChEMBL document CHEMBL3046605, “Biocontrol of rice blast by the phenaminomethylacetic acid producer of Bacillus methylotrophicus strain BC79” (2013).

Experiments:
Type in all cases: functional
Pyricularia oryzae [1] = assay: Antifungal activity against Magnaporthe oryzae in rice seedlings assessed as rice blast disease control efficacy treated 24 hr prior to fungal inoculation at 15% measured at 6 days post-inoculation under green house conditions
Pyricularia oryzae [2] = assay: Antifungal activity against Magnaporthe oryzae in rice seedlings assessed as rice blast disease incidence at 15% with formulation dose of 400 g/667 m'2 applied using knapsack sprayer measured under field trials (reference value: 43.7 +/-5.4%)
Pyricularia oryzae [3] = assay: Antifungal activity against Magnaporthe oryzae in rice seedlings assessed as rice blast disease control efficacy at 15% with formulation dose of 200 g/667 m'2 applied using knapsack sprayer measured under field trials
Pyricularia oryzae [4] = assay: Antifungal activity against Magnaporthe oryzae in rice seedlings assessed as rice blast disease control efficacy treated after fungal inoculation at 15% measured under green house conditions
Pyricularia oryzae [5] = assay: Antifungal activity against Magnaporthe oryzae in rice seedlings assessed as rice blast disease incidence treated 24 hr prior to fungal inoculation at 15% measured at 6 days post-inoculation under green house conditions (reference value: 92.4 +/-5.6%)
Pyricularia oryzae [6] = assay: Antifungal activity against Magnaporthe oryzae in rice seedlings assessed as rice blast disease incidence treated after fungal inoculation at 15% measured under green house conditions (reference value: 92.4 +/-5.6%)
Pyricularia oryzae [7] = assay: Antifungal activity against Magnaporthe oryzae in rice seedlings assessed as rice yield at 15% with formulation dose of 400 g/667 m'2 applied using knapsack sprayer measured under field trials (reference value: 5940.6 +/-1.8 kg/hm'2)
Pyricularia oryzae [8] = assay: Antifungal activity against Magnaporthe oryzae in rice seedlings assessed as rice blast disease control efficacy at 15% with formulation dose of 400 g/667 m'2 applied using knapsack sprayer measured under field trials
Pyricularia oryzae [9] = assay: Antifungal activity against Magnaporthe oryzae in rice seedlings assessed as rice blast disease incidence at 15% with formulation dose of 200 g/667 m'2 applied using knapsack sprayer measured under field trials (reference value: 43.7 +/-5.4%)
Pyricularia oryzae [10] = assay: Antifungal activity against Magnaporthe oryzae in rice seedlings assessed as rice yield at 15% with formulation dose of 200 g/667 m'2 applied using knapsack sprayer measured under field trials (reference value: 5940.6 +/-1.8 kg/hm'2)

O=C(O)CCNc1ccccc1 [PHENAMINO METHYL ACETIC ACID]
Efficacy (Pyricularia oryzae [1]): 74.3% | Activity (Pyricularia oryzae [2]): 18.3% | Efficacy (Pyricularia oryzae [3]): 68.3% | Efficacy (Pyricularia oryzae [4]): 73.6% | Activity (Pyricularia oryzae [5]): 62.5% | Activity (Pyricularia oryzae [6]): 60% | Activity (Pyricularia oryzae [7]): 6275.7 Kg/hr.m2 | Efficacy (Pyricularia oryzae [8]): 75.5% | Activity (Pyricularia oryzae [9]): 18.3% | Activity (Pyricularia oryzae [10]): 6480.5 Kg/hr.m2
